Experiment [1] concerns the target Human MET (residues 956-1390) (Homo sapiens (Human), UniProt P08581). Kind of experiment: Human Met kinase assay, HTRF KinEase (Example D-2). It counts as biochemical. The note with it: protocol of Example D-2 (other compounds); read-out: c-Met IC50. The procedure, abridged:
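IC50 values come from a 4-parameter logistic fit of the […] fluorescence ratio, set between DMSO (100%) and reference compound at 1 μM (0%). Reactions held MET 956-1390 at 0.1 ng/well, ATP at Km, biotinylated peptide, 5 mM MgCl2, 1 mM MnCl2, 1 mM DTT and 3% DMSO, and ran 40 min at room temperature before streptavidin-XL665/Eu-antibody detection.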
Background: In TR-FRET formats the signal depends on donor and acceptor labels being close together.

The target in experiment [2] is Human KDR (residues 790-1356) (Homo sapiens (Human), UniProt P35968). Kind of experiment: Human KDR kinase assay, HTRF KinEase (Example B-2). It counts as biochemical. Particulars: protocol of Example B-2 (other compounds). An outline of the steps: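 Human KDR residues 790-1356 (0.1 ng/well) in buffer with 5 mM MgCl2, 1 mM MnCl2, 1 mM DTT, biotinylated peptide substrate, ATP at Km (4.0 μM), 3% DMSO, 10 compound concentrations; 40 min, room temperature. EDTA stop, streptavidin-XL665/Eu-TK antibody HTRF read 665/620 nm; 4-parameter IC50.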
Human KDR (residues 790-1356), sequence (P35968 790-1356): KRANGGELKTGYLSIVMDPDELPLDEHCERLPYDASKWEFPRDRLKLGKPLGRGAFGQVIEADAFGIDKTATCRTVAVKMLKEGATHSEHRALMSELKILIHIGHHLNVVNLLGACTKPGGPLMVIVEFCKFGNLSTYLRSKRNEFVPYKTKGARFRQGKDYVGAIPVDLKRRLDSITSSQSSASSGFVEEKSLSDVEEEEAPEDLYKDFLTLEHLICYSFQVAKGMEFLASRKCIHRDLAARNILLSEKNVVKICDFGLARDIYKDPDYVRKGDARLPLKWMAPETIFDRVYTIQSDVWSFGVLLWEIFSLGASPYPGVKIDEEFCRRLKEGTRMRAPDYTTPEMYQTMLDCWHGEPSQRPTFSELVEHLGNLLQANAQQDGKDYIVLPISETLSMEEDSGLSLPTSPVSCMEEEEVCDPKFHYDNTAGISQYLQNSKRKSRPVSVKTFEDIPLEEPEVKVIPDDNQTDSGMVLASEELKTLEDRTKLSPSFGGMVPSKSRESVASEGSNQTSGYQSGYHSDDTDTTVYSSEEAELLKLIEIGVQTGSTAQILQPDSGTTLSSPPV

The target of experiment [3] is Mer (phospho-Mer, MERTK-transfected 293A cells) (Homo sapiens (Human), UniProt Q12866). The experiment in a line: Mer autophosphorylation ELISA in transient transfected 293A cells (Example H). Particulars: cellular activity; Mer autophosphorylation ELISA in transient transfected 293A cells. The class given is cell-based. The procedure, abridged:
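Inhibition of cellular Mer autophosphorylation is determined in 293A cells transiently expressing human MERTK after 1 h compound exposure (8 concentrations, serum-free, 0.3% DMSO). Phospho-Mer in clarified lysates is measured by ELISA, with DMSO and reference-inhibitor wells defining the 100% and 0% activity limits.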
In general terms: ELISA stands for enzyme-linked immunosorbent assay.

In experiment [4] the target is Human MER (residues 528-999) (Homo sapiens (Human), UniProt Q12866). Kind of experiment: Human Mer kinase assay, HTRF KinEase (Example C-2). It counts as biochemical. Particulars: protocol of Example C-2 (other compounds). The procedure, abridged:
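IC50 values from 10 concentrations via 4-parameter logistic fit of […], with DMSO as 100% and 1 μM reference compound as 0% activity. Reaction: MER kinase domain 528-999, 1 ng/well, 40 μM ATP (Km), biotin peptide, 5 mM MgCl2, 1 mM DTT, 3% DMSO, room temperature 60 min; HTRF streptavidin-XL665/Eu-antibody detection.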

This is an account of results in patent US12371428B2 (Exelixis, Inc., priority 2019, dated 2025).

One may read the IC50 as the point on the concentration scale where inhibition reaches its midpoint.

Human MER (residues 528-999), sequence (Q12866 528-999): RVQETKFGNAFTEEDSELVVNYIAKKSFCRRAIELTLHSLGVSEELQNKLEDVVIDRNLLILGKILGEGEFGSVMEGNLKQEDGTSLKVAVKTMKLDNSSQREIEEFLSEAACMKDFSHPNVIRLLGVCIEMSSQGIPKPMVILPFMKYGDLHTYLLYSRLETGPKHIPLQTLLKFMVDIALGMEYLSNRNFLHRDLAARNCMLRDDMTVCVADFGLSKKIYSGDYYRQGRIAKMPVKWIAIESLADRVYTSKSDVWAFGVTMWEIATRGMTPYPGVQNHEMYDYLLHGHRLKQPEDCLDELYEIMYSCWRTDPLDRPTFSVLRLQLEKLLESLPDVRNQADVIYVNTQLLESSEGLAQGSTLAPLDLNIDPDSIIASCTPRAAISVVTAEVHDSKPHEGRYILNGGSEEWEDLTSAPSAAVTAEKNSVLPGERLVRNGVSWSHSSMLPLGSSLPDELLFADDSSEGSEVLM
Mer (phospho-Mer, MERTK-transfected 293A cells), sequence (Q12866 21-999): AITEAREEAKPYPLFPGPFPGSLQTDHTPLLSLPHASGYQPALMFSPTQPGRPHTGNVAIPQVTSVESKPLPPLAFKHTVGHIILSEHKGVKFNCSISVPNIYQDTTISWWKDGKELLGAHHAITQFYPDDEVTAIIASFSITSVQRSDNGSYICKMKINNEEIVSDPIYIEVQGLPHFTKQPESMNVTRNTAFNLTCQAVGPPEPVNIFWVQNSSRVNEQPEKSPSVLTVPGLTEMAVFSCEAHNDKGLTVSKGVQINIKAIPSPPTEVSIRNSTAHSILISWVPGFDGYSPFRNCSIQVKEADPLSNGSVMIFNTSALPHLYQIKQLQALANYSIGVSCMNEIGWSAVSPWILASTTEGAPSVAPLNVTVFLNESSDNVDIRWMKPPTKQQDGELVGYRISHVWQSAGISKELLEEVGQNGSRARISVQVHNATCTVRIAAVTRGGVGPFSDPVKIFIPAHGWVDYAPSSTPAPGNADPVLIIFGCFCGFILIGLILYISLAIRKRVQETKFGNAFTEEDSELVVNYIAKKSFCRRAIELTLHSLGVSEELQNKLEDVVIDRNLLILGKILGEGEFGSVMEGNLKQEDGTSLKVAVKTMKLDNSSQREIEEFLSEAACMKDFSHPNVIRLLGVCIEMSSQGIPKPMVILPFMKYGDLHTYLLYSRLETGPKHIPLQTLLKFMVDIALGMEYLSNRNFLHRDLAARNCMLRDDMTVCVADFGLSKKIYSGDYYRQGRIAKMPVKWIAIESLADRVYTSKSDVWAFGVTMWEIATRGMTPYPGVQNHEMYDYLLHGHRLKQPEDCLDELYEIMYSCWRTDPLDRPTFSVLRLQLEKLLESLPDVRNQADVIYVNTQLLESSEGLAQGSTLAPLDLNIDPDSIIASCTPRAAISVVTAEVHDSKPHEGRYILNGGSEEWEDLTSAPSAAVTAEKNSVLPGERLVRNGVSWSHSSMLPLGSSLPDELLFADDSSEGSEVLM
Human MET (residues 956-1390), sequence (P08581 956-1390): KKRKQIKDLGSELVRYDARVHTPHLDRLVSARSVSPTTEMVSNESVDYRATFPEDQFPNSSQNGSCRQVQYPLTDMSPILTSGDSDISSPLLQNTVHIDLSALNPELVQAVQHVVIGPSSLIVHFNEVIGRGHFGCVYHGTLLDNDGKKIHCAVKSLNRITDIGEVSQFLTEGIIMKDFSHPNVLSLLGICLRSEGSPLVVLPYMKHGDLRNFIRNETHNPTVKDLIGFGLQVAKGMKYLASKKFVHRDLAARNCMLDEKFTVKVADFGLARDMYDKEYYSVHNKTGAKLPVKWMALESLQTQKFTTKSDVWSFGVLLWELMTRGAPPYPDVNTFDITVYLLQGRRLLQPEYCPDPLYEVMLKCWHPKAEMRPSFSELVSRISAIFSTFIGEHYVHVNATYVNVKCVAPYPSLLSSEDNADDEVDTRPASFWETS

As for `COc1cc2nccc(Oc3ccc(NC(=O)c4cnc(C)n(-c5ccc(F)cc5)c4=O)cc3F)c2nc1OC` [Compound 97, N-[4-[(6,7-Dimethoxy-1,5-naphthyridin-4-yl)oxy]-3-fluorophenyl]-1-(4-fluorophenyl)-2-methyl-6-oxopyrimidine-5-carboxamide], the IC50 in experiment [1], in experiment [2], in experiment [3] and in experiment [4] was under 100 nM each time.
On to `COc1cc2nccc(Oc3ccc(NC(=O)c4c(C)ncn(-c5ccc(F)cc5)c4=O)cc3F)c2nc1OC` [Compound 98, N-[4-[(6,7-Dimethoxy-1,5-naphthyridin-4-yl)oxy]-3-fluorophenyl]-1-(4-fluorophenyl)-4-methyl-6-oxopyrimidine-5-carboxamide], for which the IC50 in experiment [1], in experiment [2], in experiment [3] and in experiment [4] was under 100 nM each time.
Consider `COc1cc2nccc(Oc3ccc(NC(=O)c4cnc(N(C)C)n(-c5ccc(F)cc5)c4=O)cc3F)c2nc1OC` [Compound 100, N-[4-[(6,7-Dimethoxy-1,5-naphthyridin-4-yl)oxy]-3-fluorophenyl]-2-(dimethylamino)-1-(4-fluorophenyl)-6-oxopyrimidine-5-carboxamide], for which the IC50 in experiment [1], in experiment [2], in experiment [3] and in experiment [4] was under 100 nM each time.
`COc1cc2nccc(Oc3ccc(NC(=O)c4c(C)nc(C)n(-c5ccc(F)cc5)c4=O)cc3F)c2nc1OC` [Compound 101, N-[4-[(6,7-Dimethoxy-1,5-naphthyridin-4-yl)oxy]-3-fluorophenyl]-1-(4-fluorophenyl)-2,4-dimethyl-6-oxopyrimidine-5-carboxamide]: the IC50 in experiment [1], in experiment [2], in experiment [3] and in experiment [4] was under 100 nM throughout.
`COc1cc2nccc(Oc3ccc(NC(=O)c4c[nH]c(=O)n(-c5ccc(F)cc5)c4=O)cc3F)c2nc1OC` [Compound 102, N-[4-[(6,7-Dimethoxy-1,5-naphthyridin-4-yl)oxy]-3-fluorophenyl]-3-(4-fluorophenyl)-2,4-dioxo-1H-pyrimidine-5-carboxamide]: the IC50 in experiment [1], in experiment [2], in experiment [3] and in experiment [4] was under 100 nM in each case.
Regarding `COc1ccc2c(Oc3ccc(NC(=O)c4cnc(C)c(-c5ccc(F)cc5)c4O)cc3F)ccnc2c1` [Compound 105, N-[3-Fluoro-4-(7-methoxyquinolin-4-yl)oxyphenyl]-5-(4-fluorophenyl)-4-hydroxy-6-methylpyridine-3-carboxamide], the IC50 is under 100 nM in experiment [1], 100 to 300 nM in experiment [2], under 100 nM in experiment [3] and under 100 nM in experiment [4].
For `COc1ccc2c(Oc3ccc(NC(=O)c4cn(C(C)C)c(C)c(-c5ccc(F)cc5)c4=O)cc3F)ccnc2c1` [Compound 106, N-[3-Fluoro-4-(7-methoxyquinolin-4-yl)oxyphenyl]-5-(4-fluorophenyl)-6-methyl-4-oxo-1-propan-2-ylpyridine-3-carboxamide], the IC50 in experiment [1] is under 100 nM; in experiment [2] it was over 300 nM; in experiment [3] it was under 100 nM; in experiment [4], under 100 nM.
For the molecule `CCn1cc(C(=O)Nc2ccc(Oc3ccnc4cc(OC)ccc34)c(F)c2)c(=O)c(-c2ccc(F)cc2)c1C` [Compound 107, 1-Ethyl-N-[3-fluoro-4-(7-methoxyquinolin-4-yl)oxyphenyl]-5-(4-fluorophenyl)-6-methyl-4-oxopyridine-3-carboxamide], the IC50 in experiment [1] was under 100 nM; in experiment [2], over 300 nM; in experiment [3], under 100 nM; in experiment [4], under 100 nM.
Regarding `COc1ccc2c(Oc3ccc(NC(=O)c4cnc(C)c(-c5ccc(F)cc5)c4O)cc3)ccnc2c1` [Compound 108, 5-(4-Fluorophenyl)-4-hydroxy-N-[4-(7-methoxyquinolin-4-yl)oxyphenyl]-6-methylpyridine-3-carboxamide], the IC50 in experiment [1], in experiment [2], in experiment [3] and in experiment [4] was under 100 nM in each case.
For `COc1cc2nccc(Oc3ccc(NC(=O)c4cnc(C)c(-c5ccc(F)cc5)c4O)cc3F)c2cc1OC` [Compound 109, N-[4-(6,7-Dimethoxyquinolin-4-yl)oxy-3-fluorophenyl]-5-(4-fluorophenyl)-4-hydroxy-6-methylpyridine-3-carboxamide], the IC50 in experiment [1], in experiment [2], in experiment [3] and in experiment [4] was under 100 nM throughout.
Regarding `COc1cnc2c(Oc3ccc(NC(=O)c4cn(C)c(C)c(-c5ccc(F)cc5)c4=O)cc3)ccnc2c1` [Compound 111, 5-(4-Fluorophenyl)-N-[4-[(7-methoxy-1,5-naphthyridin-4-yl)oxy]phenyl]-1,6-dimethyl-4-oxopyridine-3-carboxamide], the IC50 was under 100 nM in experiment [1], over 300 nM in experiment [2], under 100 nM in experiment [3] and under 100 nM in experiment [4].
Regarding `COc1cnc2c(Oc3ccc(NC(=O)c4cn(C)cc(-c5ccc(F)cc5)c4=O)cc3F)ccnc2c1` [Compound 112, N-[3-Fluoro-4-[(7-methoxy-1,5-naphthyridin-4-yl)oxy]phenyl]-5-(4-fluorophenyl)-1-methyl-4-oxopyridine-3-carboxamide], the IC50 in experiment [1] was under 100 nM; in experiment [2] it was over 300 nM; in experiment [3] it was under 100 nM; in experiment [4] it was under 100 nM.
In the case of `COc1ccc2nccc(Oc3ccc(NC(=O)c4cn(C)c(C)c(-c5ccc(F)cc5)c4=O)cc3F)c2n1` [Compound 113, N-[3-Fluoro-4-[(6-methoxy-1,5-naphthyridin-4-yl)oxy]phenyl]-5-(4-fluorophenyl)-1,6-dimethyl-4-oxopyridine-3-carboxamide], the IC50 in experiment [1] is 100 to 300 nM; in experiment [2] it was over 300 nM; in experiment [3], under 100 nM; in experiment [4] it was under 100 nM.
Turning to `COc1cc2nccc(Oc3ccc(NC(=O)c4cn(C(C)C)c(C)c(-c5ccc(F)cc5)c4=O)cc3)c2nc1OC` [Compound 115, N-[4-[(6,7-Dimethoxy-1,5-naphthyridin-4-yl)oxy]phenyl]-5-(4-fluorophenyl)-6-methyl-4-oxo-1-propan-2-ylpyridine-3-carboxamide], the IC50 in experiment [1], in experiment [2], in experiment [3] and in experiment [4] was under 100 nM throughout.
On to `CCn1cc(C(=O)Nc2ccc(Oc3ccnc4cc(OC)c(OC)nc34)c(F)c2)c(=O)c(-c2ccc(F)cc2)c1` [Compound 116, N-[4-[(6,7-Dimethoxy-1,5-naphthyridin-4-yl)oxy]-3-fluorophenyl]-1-ethyl-5-(4-fluorophenyl)-4-oxopyridine-3-carboxamide], for which the IC50 in experiment [1], in experiment [2], in experiment [3] and in experiment [4] was under 100 nM throughout.
With `COc1cc2nccc(Oc3ccc(NC(=O)c4cn(CCO)cc(-c5ccc(F)cc5)c4=O)cc3F)c2nc1OC` [Compound 117, N-[4-[(6,7-Dimethoxy-1,5-naphthyridin-4-yl)oxy]-3-fluorophenyl]-5-(4-fluorophenyl)-1-(2-hydroxyethyl)-4-oxopyridine-3-carboxamide], the IC50 in experiment [1], in experiment [2], in experiment [3] and in experiment [4] was under 100 nM each time.
Regarding `COc1cc2nccc(Oc3ccc(NC(=O)c4cncc(-c5ccc(F)cc5)c4O)cc3)c2nc1OC` [Compound 118, N-[4-[(6,7-Dimethoxy-1,5-naphthyridin-4-yl)oxy]phenyl]-5-(4-fluorophenyl)-4-hydroxypyridine-3-carboxamide], the IC50 in experiment [1], in experiment [2], in experiment [3] and in experiment [4] was under 100 nM throughout.
